For the assay, the target named is T1, Kinesin-like protein KIF18A (Homo sapiens, UniProt Q8NI77).
T1 sequence (Q8NI77 whole entry): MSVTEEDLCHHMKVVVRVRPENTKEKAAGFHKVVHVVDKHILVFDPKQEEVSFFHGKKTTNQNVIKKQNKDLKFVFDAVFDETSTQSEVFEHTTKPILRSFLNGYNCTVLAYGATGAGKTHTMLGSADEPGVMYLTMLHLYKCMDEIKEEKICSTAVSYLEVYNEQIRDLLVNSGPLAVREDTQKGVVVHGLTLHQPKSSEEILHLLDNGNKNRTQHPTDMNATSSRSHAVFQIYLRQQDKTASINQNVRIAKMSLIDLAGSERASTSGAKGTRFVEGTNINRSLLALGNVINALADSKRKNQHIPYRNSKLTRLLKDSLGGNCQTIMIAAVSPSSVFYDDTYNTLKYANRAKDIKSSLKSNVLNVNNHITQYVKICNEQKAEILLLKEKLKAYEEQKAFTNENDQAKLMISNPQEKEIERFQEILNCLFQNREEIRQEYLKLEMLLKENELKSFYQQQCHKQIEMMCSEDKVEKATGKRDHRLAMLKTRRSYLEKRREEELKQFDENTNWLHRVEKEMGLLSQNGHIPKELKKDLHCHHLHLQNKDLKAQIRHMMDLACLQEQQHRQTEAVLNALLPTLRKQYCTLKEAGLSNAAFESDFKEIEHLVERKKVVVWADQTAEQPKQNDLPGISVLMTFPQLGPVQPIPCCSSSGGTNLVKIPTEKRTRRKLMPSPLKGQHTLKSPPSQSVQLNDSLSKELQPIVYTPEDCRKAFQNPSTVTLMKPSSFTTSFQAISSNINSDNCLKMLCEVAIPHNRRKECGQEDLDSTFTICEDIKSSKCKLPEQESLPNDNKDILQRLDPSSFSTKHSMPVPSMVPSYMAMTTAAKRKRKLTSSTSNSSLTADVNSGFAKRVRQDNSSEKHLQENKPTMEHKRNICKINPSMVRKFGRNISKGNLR
Briefly: Inhibition of KIF18A Microtubule-Dependent ATPase Activity. On the procedure: Table 9: Test compounds were plated in a 3× dilution scheme in a 384-well plate. […] After incubation at room temperature for 30 min, 2.5 μL of microtubule mix was added [0.2 mg/mL pre-formed microtubules, 2.0 mM ATP in assay buffer], the plate was centrifuged for 30 s and then incubated at 28° C. for 60 min. 5 μL of Promega ADP-Glo Max R1 was added, the plate was centrifuged for 30 s, and the mixture incubated for 4 h at room temperature. 10 μL of Promega ADP-Glo Max R2 was added, the plate centrifuged for 30 s, and incubated for 60 min at room temperature. Luminescence was measured with an Envision plate reader, and % Inhibition was calculated for each well as: ([max−min]−[test−min])/[max−min]. IC50 values were calculated from concentration vs. % Inhibition data via a four-parameter variable slope model.

With `CS(=O)(=O)Nc1ccc2c(c1)C1(CCC3(CC3)CC1)CN2C(=O)c1cccc(S(=O)(=O)N2CCC(C(F)F)C2)c1` (configuration not stated) [US12084420, Compound 247], the half-inhibitory concentration (IC50) was determined as 21 nM.
The value for `CC(C)(C)NS(=O)(=O)c1cc(C(=O)N2CC3(CCC4(CC4)CC3)c3cc(NS(C)(=O)=O)ccc32)co1` [US12084420, Compound 319] was 1200 nM; that for `C=C1CCC1NS(=O)(=O)c1cccc(C(=O)N2CC3(CCC4(CC4)CC3)c3cc(NS(C)(=O)=O)ccc32)c1` (configuration not stated) [US12084420, Compound 233] was 12 nM.
The value for `CS(=O)(=O)Nc1ccc2c(c1)C1(CCC3(CC3)CC1)CN2C(=O)c1cccc(S(=O)(=O)NC2CC3CC3C2)c1` (configuration not stated) [US12084420, Compound 254] was 10 nM; that for `CC(C)(C)NS(=O)(=O)c1csc(C(=O)N2CC3(CCCCC3)c3cc(NS(C)(=O)=O)ccc32)c1` [US12084420, Compound 147] was 43 nM.
Under `CC(C)(C)NS(=O)(=O)c1cc(C(=O)N2CC3(CCCCC3)c3cc(NS(C)(=O)=O)ccc32)cs1` [US12084420, Compound 231] stands 8.7 nM.
In turn, `CC(C)(CO)NS(=O)(=O)c1cccc(C(=O)N2CC3(CCC4(CC4)CC3)c3cc(NS(C)(=O)=O)ccc32)c1` [US12084420, Compound 220] showed a concentration for half-maximal inhibition (IC50) of 16 nM.
The value for `O=C(c1cccc(S(=O)(=O)N2CCC(F)(F)CC2)c1)N1CC2(CCCC2)c2cc(NS(=O)(=O)CCO)ccc21` [US12084420, Compound 27] was 83 nM.
The value for `CC(C)(C)NS(=O)(=O)c1cccc(C(=O)N2CC3(CCC4(CC4)CC3)c3cc(NS(=O)(=O)CCF)ccc32)c1` [US12084420, Compound 365] was 13 nM; that for `CS(=O)(=O)Nc1ccc2c(c1)C1(CCC3(CC3)CC1)CN2C(=O)c1cccc(/C=N/N2CCCCC2)c1` [US12084420, Compound 318] was 930 nM; that for `Cn1nc(S(=O)(=O)NC(C)(C)C)cc1C(=O)N1CC2(CCCCC2)c2cc(NS(C)(=O)=O)ccc21` [US12084420, Compound 59] was 1000 nM.
Under `CCC(C)(C)NS(=O)(=O)c1cccc(C(=O)N2CC3(CCC4(CC4)CC3)c3cc(NS(C)(=O)=O)ccc32)c1` [US12084420, Compound 266] stands 16 nM.

Source of the values: BindingDB's records for patent US12084420 (Volastra Therapeutics, 2024).
